Results published in patent publication US6019988A, “Methods and compositions for enhancing skin permeation of drugs using permeation enhancers, when drugs and/or permeation enhancers are unstable in combination during long-term storage” (priority 1996, dated 2000).

Key:
[1] = Stability in pharmaceutical solvents / excipients at 30 and 40 °C
[2] = Solubility in water- or oil-based formulations; assay type: physicochemical
[3] = Plasma concentration after topical application to hairless rats; assay type: in vivo, hairless rat
[4] = not told

SMILES: CC(=C/C(=O)O)/C(=C/c1ccc2cc3c(cc2c1)C(C)(C)CCC3(C)C)c1cccc(C(=O)O)c1 [BMS-188184-05]
- remaining at 240 h ([1]; pharmaceutical solvents): < 90%

SMILES: CC(=C/C(=O)O)/C(=C/c1ccc2cc3c(cc2c1)C(C)(C)CCC3(C)C)c1cccc(C(=O)O)c1 [BMS-188184-02, (2Z,4Z)-3-methyl-4-(3-carboxyphenyl)-5-[(1,2,3,4-tetrahydro-1,1,4,4-tetramethyl)-6-anthracenyl]-2,4-pentadienoic acid]
- solubility in water-based or oil-based formulations [2]: soluble
- concentration of drug in plasma ([3]; by 6 hours after topical application): below the limit of detection
- Cmax ([3]; rat, plasma, topical or ocular, dual system 2% ointment + SLS cream, single topical dose, read-out: peak plasma concentrations): 2400 ng/mL
- Tmax ([3]; rat, plasma, topical or ocular, dual system 2% ointment + SLS cream, single topical dose, read-out: time of peak plasma concentrations): 2 h

SMILES: CC(=C/C(=O)O)/C(=C/c1ccc2cc3c(cc2c1)C(C)(C)CCC3(C)C)c1cccc(C(=O)O)c1 [BMS-188184-01, (2Z,4Z)-3-methyl-4-(3-carboxyphenyl)-5-[(1,2,3,4-tetrahydro-1,1,4,4-tetramethyl)-6-anthracenyl]-2,4-pentadienoic acid]
- solubility in water-based or oil-based formulations [2]: virtually insoluble

SMILES: CC(=C/C(=O)O)/C(=C/c1ccc2cc3c(cc2c1)C(C)(C)CCC3(C)C)c1cccc(C(=O)O)c1 [BMS-188184, (2Z,4Z)-3-methyl-4-(3-carboxyphenyl)-5-[(1,2,3,4-tetrahydro-1,1,4,4-tetramethyl)-6-anthracenyl]-2,4-pentadienoic acid]
- long-term (storage) stability in formulations / with permeation enhancers [4]: stable in GEAHLENE base containing mineral oil and in petrolatum ointment containing fatty acid esters
- shelf life in these solvents ([1]; 30° C., propylene glycol, Transcutol, ethanol SD-40, PEG-8, water): less than 10 days
- stability in various pharmaceutical solvents ([1]; propylene glycol, Transcutol, ethanol SD-40, PEG-8, water, 30° C. and 40° C.): poor
